Consider 1 molecule from patent publication EP4790048A1, “S1PR4 REGULATOR COMPOUND FOR AUTOIMMUNE DISEASE TREATMENT AND APPLICATION THEREOF” (Shengyuan Zetong (Shanghai) Pharmaceutical Co., Ltd, priority 2023, dated 2025).

The assay deals with T1, hS1P4-R-79C (Homo sapiens, UniProt O95977, R79C).
T1 construct: expressed in transfected cells; host or cells: CHO
T1 sequence (O95977 1-384 R79C): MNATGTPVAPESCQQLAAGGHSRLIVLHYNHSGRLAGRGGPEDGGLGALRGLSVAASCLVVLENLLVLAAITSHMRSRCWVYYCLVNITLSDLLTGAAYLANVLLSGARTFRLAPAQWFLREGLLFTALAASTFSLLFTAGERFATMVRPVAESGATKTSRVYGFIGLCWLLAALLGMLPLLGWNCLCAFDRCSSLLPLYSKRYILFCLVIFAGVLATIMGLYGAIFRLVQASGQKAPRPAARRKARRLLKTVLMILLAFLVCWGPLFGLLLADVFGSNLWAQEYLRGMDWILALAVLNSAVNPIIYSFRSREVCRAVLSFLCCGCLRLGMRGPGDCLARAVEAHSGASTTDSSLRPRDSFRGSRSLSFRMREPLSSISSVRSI
The experiment in a line: Tango β-arrestin recruitment luciferase assay, Tango-hS1P4-R-79C-CHO (S1PR4 mutant). Format: cell-based. Particulars: 20 h drug treatment. From the text:
The Tango assay detects ligand-dependent GPCR activity through the interaction between β-arrestin and GPCRs. […] The NTEV fragment and the tetracycline transactivator (tTA), an artificial transcription factor, are fused at the C-terminus of the GPCR, while the CTEV fragment is fused to human β-arrestin 2. To enhance the stability of the interaction between GPCR and β-arrestin, a short sequence from the C-terminus of the human arginine vasopressin receptor 2 (V2 tail) is inserted between the GPCR and NTEV. The V2 tail contains multiple GRK phosphorylation sites, which strengthen β-arrestin binding upon phosphorylation. The CTEV fragment carries the stabile point mutation S219P and is truncated at residue 221 to remove the autoinhibitory C-terminal tail. Meanwhile, β-arrestin 2 is truncated to lack the entire C-terminal tail (residues 383-410 deleted). This truncation confers robust stimulus-dependent receptor desensitization, thereby improving detection sensitivity compared with wild-type β-arrestin 2. The UAS reporter construct consists of upstream activating sequence (UAS) elements, a minimal CMV promoter, and a tTA-dependent luciferase reporter gene. Therefore, constructing Tango cells requires the co-transfection of the above three plasmids into host cells. Upon GPCR activation and β-arrestin recruitment, the TEV enzyme at the β-arrestin terminus cleaves tTA from the GPCR C-terminus. The released tTA initiates tTA-dependent luciferase transcription, and compound activity is ultimately determined by measuring luminescence intensity.
• 1) Tango cell line from was digested from the culture dish respectively. After cell counting, the cells were plated at a density of 10,000 cells per well with […] into a white opaque 96-well plate (add 60 µL D'Hanks to the surrounding wells), and incubated overnight (20 h) in a 5% CO2 incubator at 37°C. The cell density will reach approximately 90% the next day. • 2) After 20 h, 30 µL of serially diluted compound solution was added to each well. The control group was supplemented with 30 µL F12K complete medium. Each group had three replicate wells. • 3) Samples were collected after 20 h of drug treatment.
(All compounds were tested at a final concentration of 45 µM, with 9 serial dilutions at 5-fold intervals. 1 µM BAF-312 was used as the positive control for S1PR1, and 25 µM BAF-312 was used as the positive control for S1PR4.
For orientation: Arrestin recruitment assays detect the binding of arrestin to an activated receptor.

A word on the EC50: it is the concentration at which the effect is half-maximal. Low readings indicate an effect from little substance, high ones a need for much substance.

The structures appear in SMILES notation.

`CCc1cc(/C(C)=N/OCc2ccc(-c3ccccc3)c(C)c2)ccc1CN1CC[C@H](C(=O)O)C1` [Compound 30] gave an EC50 of 15 nM.
